Measured values as given in PubChem BioAssay (NCI).
Where “and” joins values, the source holds several entries; their conditions need not be identical. Equal values may be shown once.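 96-well plates; 48 h exposure; 5 concentrations. Endpoints by linear interpolation between flanking doses. Not reached: highest tested concentration assigned. GI50 marks 50% less growth. The concentration for full growth arrest is given as TGI.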

Experiments:
Experiment in all cases: NCI-60 cell line screen, 48 h
CCRF-CEM leukemia = test system: CCRF-CEM leukemia
OVCAR-3 ovarian = test system: OVCAR-3 ovarian
TK-10 renal = test system: TK-10 renal
MALME-3M melanoma = test system: MALME-3M melanoma
DU-145 prostate = test system: DU-145 prostate
EKVX NSCLC = test system: EKVX NSCLC
RPMI-8226 leukemia = test system: RPMI-8226 leukemia
MDA-N = test system: MDA-N
SN12C renal = test system: SN12C renal
SK-OV-3 ovarian = test system: SK-OV-3 ovarian
HL-60(TB) leukemia = test system: HL-60(TB) leukemia

Row | SMILES | TGI (CCRF-CEM leukemia) [µM] | TGI (OVCAR-3 ovarian) [µM] | TGI (TK-10 renal) [µM] | TGI (MALME-3M melanoma) | TGI (DU-145 prostate) [µM] | TGI (EKVX NSCLC) | TGI (RPMI-8226 leukemia) | TGI (MDA-N) [µM] | TGI (SN12C renal) [µM] | TGI (SK-OV-3 ovarian) [µM] | GI50 (OVCAR-3 ovarian) [µM] | GI50 (TK-10 renal) [µM] | GI50 (MALME-3M melanoma) [µM] | GI50 (DU-145 prostate) [µM] | GI50 (HL-60(TB) leukemia) [µM] | TGI (HL-60(TB) leukemia) [µM] | GI50 (EKVX NSCLC) [µM] | GI50 (RPMI-8226 leukemia) [µM] | GI50 (SN12C renal) [µM] | GI50 (SK-OV-3 ovarian) [µM]
1 | CC(=O)OCC(OC(C)=O)C(OC(C)=O)C(OC(C)=O)C(C=NN(C(C)=O)S(=O)(=O)c1ccc(/C=C2\NC(=O)N(C)C2=O)cc1)OC(C)=O (stereo not drawn) | 41.6 | > 100 | 40.4 | 37.5 µM and 52.1 µM | > 100 | 78.5 µM and > 100 µM | 49.8 µM and 65.8 µM | > 100 | > 100 | > 100 | – | – | – | – | – | – | – | – | – | –
2 | O=c1ccc2nc(-c3ccccc3)nn(-c3ccccn3)c-2c1 | – | 3.15 | 3.14 | 3.56 µM | 30.7 | 28.2 µM | 63.1 µM | – | 37.9 | 25 | 1.69 | 1.71 | 1.92 | 15.5 | 1.34 | 4.33 | 14.8 | 5.32 | 16.9 | 10.3
3 | O=C(NC(CS)C(=O)O)c1cccc2c(=O)c3ccccc3[nH]c12 (stereo not drawn) | – | > 100 | > 100 | > 100 µM | > 100 | > 100 µM | > 100 µM | > 100 | > 100 | > 100 | – | – | – | – | – | > 100 | – | – | – | –
4 | Cc1ccc2ccccc2c1NC1=NCCO1 | > 100 | – | > 100 | > 100 µM | > 100 | > 100 µM | > 100 µM | – | > 100 | > 100 | – | – | – | – | – | > 100 | – | – | – | –
5 | CC(C)(C)OC(=O)c1cnc(Cl)cn1 | 72.7 | – | > 100 | > 100 µM | > 100 | 64.3 µM | > 100 µM | – | > 100 | > 100 | – | – | – | – | – | – | – | – | – | –
6 | COc1ccc(-c2c(=O)[nH]n3c(=S)nc(-c4ccccc4)[nH]c23)cc1OC | 31.1 | – | 53.1 | 40.7 µM | 52.3 | 60.8 µM | – | 28.3 | 37.3 | 55.9 | – | – | – | – | – | 39.3 | – | – | – | –
7 | COc1cc(C2c3cc(O)c(OC)cc3C3OCC2C3CO)ccc1O (stereo not drawn) | – | > 100 | > 100 | > 100 µM | > 100 | > 100 µM | > 100 µM | – | – | > 100 | – | – | – | – | – | > 100 | – | – | – | –
8 | C#CCOc1c(C(=O)OCC)c(=O)n(C)c2ccccc12 | > 100 | > 100 | > 100 | > 100 µM | – | > 100 µM | > 100 µM | – | > 100 | > 100 | – | – | – | – | – | > 100 | – | – | – | –
9 | O=C1c2ccccc2NC(=O)C2C1C(c1ccccc1)CC2(O)c1ccccc1 (stereo not drawn) | > 100 | > 100 | 99.7 | > 100 µM | > 100 | > 100 µM | – | – | > 100 | > 100 | – | – | – | – | – | > 100 | – | – | – | –
10 | COC(=O)c1ccccc1C1CN=NC12Cc1ccc(C)c(C)c1C2=O (stereo not drawn) | > 100 | > 100 | > 100 | > 100 µM | > 100 | > 100 µM | – | > 100 | > 100 | > 100 | – | – | – | – | – | 69.7 | – | – | – | –
11 | CCN1CCN(c2ccc(Nc3ccnc4ccc5c(nnn5C)c34)cc2)CC1 | 54.7 | 18.9 | 45.6 | 23.6 µM | 18.3 | 43.9 µM | – | 14.4 | 16 | 32.2 | – | – | – | – | – | 25.9 | – | – | – | –
12 | Cn1nc2ccc3nccc(N4CCN(CCO)CC4)c3c2n1 | > 100 | > 100 | > 100 | > 100 µM | > 100 | – | – | > 100 | > 100 | > 100 | – | – | – | – | – | – | – | – | – | –
13 | CC(OC(C)(C)C)[C@H](NC(=O)OC(C)(C)C)C(=O)O (stereo partly drawn) | > 100 | > 100 | > 100 | > 100 µM | > 100 | > 100 µM | > 100 µM | – | > 100 | > 100 | – | – | – | – | – | > 100 | – | – | – | –
14 | O=C1CCC(=O)N1Cc1ccccc1N=[N+]([O-])c1ccccc1CN1C(=O)CCC1=O | > 100 | > 100 | > 100 | > 100 µM | – | > 100 µM | > 100 µM | – | > 100 | – | – | – | – | – | – | > 100 | – | – | – | –
15 | CC1(C)O[C@@H]2[C@@H](COC(=O)c3ccccc3)C[C@@H](C#N)[C@@H]2O1 | > 100 | > 100 | > 100 | > 100 µM | > 100 | – | > 100 µM | – | > 100 | > 100 | – | – | – | – | – | > 100 | – | – | – | –
16 | N#CN=C(N)NC(=O)/C=C/C=C/c1ccc(Cl)cc1 | > 100 | > 100 | > 100 | > 100 µM | – | – | > 100 µM | – | > 100 | > 100 | – | – | – | – | – | > 100 | – | – | – | –
17 | CC(=O)OCC1OC(n2c(-c3ccccc3)c(C(C)=O)c(-c3ccc(Cl)cc3)c(C#N)c2=S)C(OC(C)=O)C(OC(C)=O)C1OC(C)=O (stereo not drawn) | > 100 | > 100 | > 100 | > 100 µM | > 100 | > 100 µM | – | > 100 | > 100 | > 100 | – | – | – | – | – | > 100 | – | – | – | –
18 | Nc1nc(N)c(NC(=O)CCCO)c(=O)[nH]1 | > 100 | > 100 | > 100 | > 100 µM | > 100 | > 100 µM | > 100 µM | > 100 | > 100 | > 100 | – | – | – | – | – | – | – | – | – | –
19 | O=C(CSc1nc2ccccc2s1)c1sc2sc3ccccc3[n+]2c1[O-] | – | > 100 | > 100 | > 100 µM | > 100 | > 100 µM | > 100 µM | > 100 | > 100 | > 100 | – | – | – | – | – | > 100 | – | – | – | –
20 | O=C1CC(O)c2c(Br)sc(Br)c21 (stereo not drawn) | – | 19.9 | 13.3 | 32.9 µM | 22.2 | 27.7 µM | 11.8 µM | 22.5 | 34.2 | 30.3 | – | – | – | – | – | 14.9 | – | – | – | –
21 | N#Cc1c(O)c(N=Nc2ccccc2F)c(=O)n2c1[nH]c1ccccc12 | > 100 | > 100 | > 100 | > 100 µM | > 100 | > 100 µM | – | > 100 | > 100 | > 100 | – | – | – | – | – | > 100 | – | – | – | –
